Results as given in US8993760B2, “Rock inhibitors and uses thereof” (University of South Florida, priority 2006, dated 2015).
pIC50: −log10 of the molar value. Where two headings read alike, the source gives them in different places.

Molecular target: Rho-kinase (ROCK1) (Homo sapiens, UniProt Q13464)
Assay: Rho-kinase (ROCK1) inhibition
Type: biochemical
Details: for % Inhibition / Inhibition: concentration not given
[1] = Table 2, first number of the cell
[2] = read-out: IC50, inhibitory activity against Rho-kinase activity
[3] = Table 3, first number of the cell
[4] = Table 1, first number of the cell

Rho-kinase (ROCK1), sequence (Q13464 whole entry, species assumed): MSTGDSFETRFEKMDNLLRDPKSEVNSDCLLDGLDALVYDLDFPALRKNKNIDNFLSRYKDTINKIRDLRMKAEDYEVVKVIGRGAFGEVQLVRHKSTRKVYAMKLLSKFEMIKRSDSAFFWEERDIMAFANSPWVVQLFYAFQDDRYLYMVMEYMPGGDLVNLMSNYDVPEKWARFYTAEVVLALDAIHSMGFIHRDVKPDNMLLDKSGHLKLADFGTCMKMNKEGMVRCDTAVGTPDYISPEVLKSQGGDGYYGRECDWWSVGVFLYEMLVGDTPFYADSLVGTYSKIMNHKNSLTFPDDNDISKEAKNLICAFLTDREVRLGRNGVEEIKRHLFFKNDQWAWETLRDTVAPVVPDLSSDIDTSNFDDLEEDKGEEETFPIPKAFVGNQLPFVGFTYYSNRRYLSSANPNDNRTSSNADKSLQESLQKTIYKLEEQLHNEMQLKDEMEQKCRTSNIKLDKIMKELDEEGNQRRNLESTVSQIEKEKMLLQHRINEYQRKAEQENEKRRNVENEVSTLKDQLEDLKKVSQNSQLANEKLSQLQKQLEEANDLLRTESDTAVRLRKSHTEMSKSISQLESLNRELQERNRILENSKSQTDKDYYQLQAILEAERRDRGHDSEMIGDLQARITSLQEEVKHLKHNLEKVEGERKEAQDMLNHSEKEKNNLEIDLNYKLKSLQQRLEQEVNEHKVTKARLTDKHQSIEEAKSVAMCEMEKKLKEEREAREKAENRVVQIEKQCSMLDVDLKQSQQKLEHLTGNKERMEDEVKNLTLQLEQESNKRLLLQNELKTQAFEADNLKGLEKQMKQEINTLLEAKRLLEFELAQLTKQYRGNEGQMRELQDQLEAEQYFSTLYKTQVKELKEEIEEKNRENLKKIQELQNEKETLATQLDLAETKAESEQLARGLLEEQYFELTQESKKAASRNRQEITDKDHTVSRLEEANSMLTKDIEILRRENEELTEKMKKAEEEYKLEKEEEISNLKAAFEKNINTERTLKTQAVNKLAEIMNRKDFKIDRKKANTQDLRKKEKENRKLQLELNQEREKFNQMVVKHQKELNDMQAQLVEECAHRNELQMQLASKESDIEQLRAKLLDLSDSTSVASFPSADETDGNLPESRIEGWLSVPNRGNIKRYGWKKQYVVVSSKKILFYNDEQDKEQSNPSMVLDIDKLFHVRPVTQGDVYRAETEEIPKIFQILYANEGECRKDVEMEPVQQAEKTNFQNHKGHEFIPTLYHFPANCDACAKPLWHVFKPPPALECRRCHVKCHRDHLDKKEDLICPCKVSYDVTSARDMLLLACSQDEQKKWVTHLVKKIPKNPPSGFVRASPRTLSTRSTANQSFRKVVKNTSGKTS

SMILES: CSCC[C@@H]1NC(=O)CN(Cc2ccncc2)C1=O [Compound 1b]
- % Inhibition (@ 100 μM) (Table 2): 1.96%
- % Inhibition [1]: 25%

SMILES: O=C1CN(Cc2ccncc2)C(=O)[C@H](CO)N1 [Compound 1d]
- % Inhibition (@ 100 μM) (Table 2): 1.73%
- % Inhibition [1]: 45%

SMILES: O=C1CN(Cc2ccncc2)C(=O)[C@H](Cc2ccccc2)N1 [Compound 1e]
- % Inhibition [1]: ~20%

SMILES: CSCC[C@H]1CN(Cc2ccncc2)CCN1 [Compound 2b]
- % Inhibition (@ 100 μM) (Table 2): 4.35%
- % Inhibition [1]: 36%

SMILES: OC[C@H]1CN(Cc2ccncc2)CCN1 [Compound 2d]
- % Inhibition (@ 100 μM) (Table 2): 3.73%
- % Inhibition [1]: 20%

SMILES: CSCC[C@@H]1NC(=O)CN(Cc2ccccc2)C1=O [Compound 3b]
- % Inhibition [1]: 78%

SMILES: O=C1CN(Cc2ccccc2)C(=O)[C@H](Cc2ccccc2)N1 [Compound 3e]
- % Inhibition (@ 100 μM) (Table 2): 0.75%
- % Inhibition [1]: 61%

SMILES: CSCC[C@H]1CN(Cc2ccccc2)CCN1 [Compound 4b]
- % Inhibition (@ 100 μM) (Table 2): 0.53%
- % Inhibition [1]: 60%

SMILES: CSCC[C@@H]1NC(=O)CN(Cc2cccc3ccccc23)C1=O [Compound 5b]
- % Inhibition (@ 100 μM) (Table 2): −1.48%
- % Inhibition [1]: 93%

SMILES: O=C1CN(Cc2cccc3ccccc23)C(=O)[C@H](Cc2ccccc2)N1 [Compound 5e]
- % Inhibition (@ 100 μM) (Table 2): −1.87%
- % Inhibition [1]: 71%

SMILES: CSCC[C@H]1CN(Cc2cccc3ccccc23)CCN1 [Compound 6b]
- % Inhibition (@ 100 μM) (Table 2): 11.9%
- % Inhibition [1]: 62%

SMILES: c1ccc(C[C@H]2CN(Cc3cccc4ccccc34)CCN2)cc1 [Compound 6e, N-Naphtylmethyl-3-benzyl piperazine]
- inhibitory activity / disruption of Rho-kinase activity (in words): particular effectiveness
- % Inhibition (@ 100 μM) (Table 2): 20.4%
- % Inhibition [1]: 75%

SMILES: CCOC(=O)C1CCN(C(=O)Nc2ccncc2)CC1 [Compound 7]
- Inhibition (@ 100 μM) (Table 4): 6.29 (@ 100 μM)

SMILES: Cl.O=C(O)C1CCN(C(=O)Nc2ccncc2)CC1 [Compound 8]
- Inhibition (@ 100 μM) (Table 4): 1.59 (@ 100 μM)

SMILES: O=C(Nc1ccncc1)N1CCCN(Cc2ccccc2)CC1 [Compound 9]
- Inhibition (@ 100 μM) (Table 4): 21.0 (@ 100 μM)

SMILES: O=C(Nc1ccncc1)N1CCCNCC1 [Compound 10]
- Inhibition (@ 100 μM) (Table 4): 16.7 (@ 100 μM)

SMILES: O=C(Nc1ccncc1)N1CCN[C@@H](COCc2ccccc2)C1 [Compound 12a]
- Inhibition (@ 100 μM) (Table 4): 9.58

SMILES: O=C(Nc1ccncc1)N1CCN[C@@H](Cc2ccccc2)C1 [Compound 12b]
- inhibitory activity / disruption of Rho-kinase activity (in words): potent disrupters of active Rho-kinase
- pIC50 [2]: 4.85

SMILES: O=C(Nc1ccncc1)NC1CCN(Cc2ccccc2)CC1 [Compound 14a]
- pIC50 (Table 4, read-out: IC50): 4.05

SMILES: O=C(Nc1ccncc1)OC1CCN(Cc2ccccc2)CC1 [Compound 14b]
- pIC50 (Table 4, read-out: IC50): 4.25

SMILES: O=C(Nc1ccncc1)NC1CCNCC1 [Compound 15a]
- pIC50 (Table 4, read-out: IC50): 4.26

SMILES: O=C(Nc1ccncc1)OC1CCNCC1 [Compound 16b]
- inhibitory activity / disruption of Rho-kinase activity (in words): potent disrupters of active Rho-kinase
- pIC50 [2]: 5.12

SMILES: CC(C)(C)OC(=O)N1CCN(C(=O)c2cccc3cnccc23)C[C@@H]1Cc1ccccc1 [IP-III-153]
- Inhibition [3]: 91

SMILES: O=C(c1cccc2cnccc12)N1CCN[C@@H](Cc2ccccc2)C1 [IP-IV-15]
- Inhibition [3]: 70

SMILES: c1ccc(C[C@H]2CN(Cc3cccc4cnccc34)CCN2)cc1 [IP-IV-29]
- Inhibition [3]: 16 IC50 = 16 μM
- pIC50 (Table 3, read-out: IC50): 4.80

SMILES: CC(C)(C)OC(=O)N1CCN(c2ccnc3ccccc23)C[C@@H]1Cc1ccccc1 [IP-IV-33]
- % Inhibition [4]: 47%

SMILES: CC(C)(C)OC(=O)N1CCN(c2ccnc3ccccc23)C[C@@H]1COCc1ccccc1 [IP-IV-35]
- % Inhibition [4]: 54%

SMILES: CCOC(=O)C1CCN(CC(=O)Nc2ccncc2)CC1 [IP-IV-39]
- % Inhibition (@ 100 μM) (Table 5): −1.46 (@ 100 μM) %

SMILES: CC(C)(C)OC(=O)N1CCN(c2cccc3cnccc23)C[C@@H]1Cc1ccccc1 [IP-IV-41]
- inhibitory activity / disruption of Rho-kinase activity (in words): potent disrupters of active Rho-kinase
- % Inhibition (@ 100 μM) (Table 1): 9.71%
- % Inhibition [4]: 83%

SMILES: CC(C)(C)OC(=O)N1CCN(c2cccc3cnccc23)C[C@@H]1COCc1ccccc1 [IP-IV-43]
- % Inhibition (@ 100 μM) (Table 1): 4.73%
- % Inhibition [4]: 49%

SMILES: c1ccc(C[C@H]2CN(c3ccnc4ccccc34)CCN2)cc1 [IP-IV-47]
- % Inhibition [4]: 43%

SMILES: c1ccc(COC[C@H]2CN(c3ccnc4ccccc34)CCN2)cc1 [IP-IV-49]
- inhibitory activity / disruption of Rho-kinase activity (in words): potent disrupters of active Rho-kinase
- % Inhibition [4]: 85%

SMILES: c1ccc([C@H]2CN(c3cccc4cnccc34)CCN2)cc1 [IP-IV-67]
- % Inhibition [4]: 67%
- pIC50 (Table 1, read-out: IC50): 5.46

SMILES: O=C(CN1CCCN(Cc2ccccc2)CC1)Nc1ccncc1 [IP-IV-73]
- % Inhibition (@ 100 μM) (Table 5): 13.31 (@ 100 μM) %

SMILES: O=C(CN1CCCNCC1)Nc1ccncc1 [IP-IV-81]
- % Inhibition (@ 100 μM) (Table 5): 30.61 (@ 100 μM) %

SMILES: CC(C)[C@H]1CN(C(=O)c2cccc3cnccc23)CCN1C(=O)OC(C)(C)C [IP-IV-89]
- Inhibition [3]: 82

SMILES: CC(C)[C@H]1CN(C(=O)c2cccc3cnccc23)CCN1 [IP-IV-103]
- Inhibition [3]: 81

SMILES: O=C(Nc1cccc2cnccc12)N1CCCN(Cc2ccccc2)CC1 [IP-IV-105]
- % Inhibition (@ 100 μM) (Table 5): −0.85 (@ 100 μM) %

SMILES: CC(C)[C@H]1CN(Cc2cccc3cnccc23)CCN1 [IP-IV-107]
- Inhibition [3]: 29
- pIC50 (Table 3, read-out: IC50): 4.66

SMILES: c1ccc(C[C@H]2CN(Cc3cccc4ncccc34)CCN2)cc1 [IP-IV-109 R = H2]
- pIC50 (Table 3, read-out: IC50): 4.17

SMILES: O=C(c1cccc2ncccc12)N1CCNC(Cc2ccccc2)C1 (stereo not drawn) [IP-IV-109 R = O]
- Inhibition (@ 100 μM) (Table 3): 1.55 (@ 100 μM)

SMILES: O=C(Nc1cccc2cnccc12)OC1CCN(Cc2ccccc2)CC1 [IP-IV-115]
- % Inhibition (Table 5): 50%

SMILES: O=C(Nc1cccc2cnccc12)NC1CCCCCC1 [IP-IV-129]
- % Inhibition (Table 5): 50%
